Test system: VE-cadherin and Claudin-5 in pHUVECs
Experiment: Immunofluorescence of VE-cadherin and Claudin-5 junctional staining in pHUVECs treated with COVID-19 patient plasma
Assay type: cell-based, human
Conditions: co-treatment with moderate or severe COVID-19 plasma, six hours

## Nangibotide
  disruption of the EC barrier, as examined through junctional protein expression (VE-cadherin, Claudin-5): could maintain junctional protein expression

— US20230194530A1, “CIRCULATING CARDIOVASCULAR BIOMARKERS AND VASCULAR STABILIZING THERAPY” (priority 2021, published 2023)
